Results from the supplement of paper PMC11451515.

Key:
Assay in all cases: AUC of viability dose-response curve (% viability x log10 dose units); higher = less sensitive
Settings in all cases: 48 h
SEM cells = system: SEM cells
Outline: (§1)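 Leukemia cells adapted to each medium were seeded in 1536-well plates (500 or 1000 cells/well) and given library compounds in DMSO for 48 h at 37°C. The 11 threefold doses spanned 47 μM to 0.79 nM, and CellTiter-Glo One luminescence was normalised per plate to DMSO and cell-free wells before four-parameter log-logistic fitting on log10 dose. Area under the curve was integrated with the trapezoidal rule, scaling curves above full viability and removing curves that failed quality control.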

P12-Ichikawa = system: P12-Ichikawa
Outline: as §1

NOMO1 = system: NOMO1
Outline: as §1

[1] = RPMI 5 mM glucose + 10% dialyzed FBS

Row | Compound | AUC of viability dose-response curve (SEM cells; HPLM + 10% dialyzed FBS) | AUC of viability dose-response curve (SEM cells; RPMI 5 mM glucose + 10% FBS) | AUC of viability dose-response curve (SEM cells; [1]) | AUC of viability dose-response curve (P12-Ichikawa; HPLM + 10% dialyzed FBS) | AUC of viability dose-response curve (P12-Ichikawa; RPMI 5 mM glucose + 10% FBS) | AUC of viability dose-response curve (P12-Ichikawa; [1]) | AUC of viability dose-response curve (NOMO1; HPLM + 10% dialyzed FBS) | AUC of viability dose-response curve (NOMO1; RPMI 5 mM glucose + 10% FBS) | AUC of viability dose-response curve (NOMO1; [1])
1 | CC(C)[N+]1(C)C2CCC1CC(OC(=O)C(CO)c1ccccc1)C2.O.[Br-] (stereo not drawn) | 449 | 423 | 422 | 383 | 427 | 417 | 423 | 457 | 450
2 | NC[C@H]1O[C@H](O[C@H]2[C@H](O)[C@@H](O[C@H]3O[C@H](CO)[C@@H](O)[C@H](N)[C@H]3O)[C@H](N)C[C@@H]2N)[C@H](N)C[C@@H]1O | 455 | 470 | 469 | 459 | 455 | 413 | 467 | 467 | 452
3 | CN(C)CCOc1ccc(/C(=C(/CCCl)c2ccccc2)c2ccccc2)cc1 | 362 | 344 | 369 | 410 | 393 | 399 | 441 | 437 | 448
4 | Nc1ccc([S+](=O)([O-])Nc2ncccn2)cc1 | 460 | 462 | 437 | 464 | 452 | 471 | 467 | 444 | 452
5 | Cc1cnc(Nc2ccc(CN3CCOCC3)cc2)nc1Nc1cccc([S+](=O)([O-])NC(C)(C)C)c1 |  |  |  | 299 | 300 | 292 |  |  | 
6 | C1COC(NC(C2CC2)C2CC2)=N1 |  |  |  | 425 | 459 | 404 | 428 | 415 | 408
7 | Cc1cnc(Nc2ccc(N3CCN(C)CC3)cc2)nc1Nc1cccc([S+](=O)([O-])NC(C)(C)C)c1 | 311 | 303 | 324 | 400 | 390 | 400 | 375 | 411 | 406
8 | CC(S)C(=O)NCC(=O)O (stereo not drawn) | 438 | 432 | 417 | 471 | 476 | 472 | 464 | 440 | 469
9 | C1CN\2C[C@@H](\N=C2S1)C3=CC=CC=C3 | 459 | 396 | 476 | 467 | 462 | 455 | 465 | 442 | 429
10 | CCOC(=O)O[C@]1(C(=O)OCCl)CC[C@H]2[C@@H]3CCC4=CC(=O)C=C[C@]4(C)[C@H]3[C@@H](O)C[C@@]21C | 460 | 429 | 430 | 467 | 461 | 450 | 459 | 427 | 431
11 | N[C@@H](Cc1ccc(O)c(O)c1)C(=O)O | 456 | 433 | 458 | 471 | 454 | 466 | 459 | 475 | 456
12 | COc1cc2ncn(-c3cc(OCc4ccccc4C(F)(F)F)c(C(N)=O)s3)c2cc1OC | 358 | 354 | 372 | 333 | 352 | 364 | 349 | 375 | 375
13 | CCOC(=O)[C@@H](N)CCC(=O)N[C@@H](CSCc1ccccc1)C(=O)N[C@@H](C(=O)OCC)c1ccccc1 | 466 | 473 | 461 | 467 | 458 | 458 | 468 | 466 | 474
14 | CN1CCC(CC1)=C2C3=C(C=CC=C3)\C=C/C4=C2C=CC=C4 | 469 | 467 | 468 | 473 | 467 | 477 | 470 | 467 | 468
15 | CC(C)(O)C(=O)Nc1ccc([N+](=O)[O-])c(C(F)(F)F)c1 | 465 | 449 | 448 | 404 | 409 | 438 | 368 | 355 | 371
16 | C[C@H](Cc1ccc(O)c(O)c1)[C@@H](C)Cc1ccc(O)c(O)c1 | 394 | 453 | 453 | 443 | 432 | 436 |  |  | 
17 | CC[C@H]1CN2CCc3cc(OC)c(OC)cc3[C@@H]2C[C@@H]1C[C@H]1NCCc2cc(OC)c(OC)cc21 | 193 | 214 | 240 | 289 | 279 | 300 | 305 | 300 | 305
18 | CC(C)(C)OC(=O)Nc1ccc(-c2cc(C(=O)NCCCCCCC(=O)NO)no2)cc1 | 343 | 333 | 288 | 333 | 297 | 276 | 379 | 346 | 361
19 | CS[C@H]1SC[C@@H]2C(=O)N(C)[C@H](C(C)C)C(=O)OC[C@H](NC(=O)c3cnc4ccccc4n3)C(=O)N[C@H](C)C(=O)N(C)[C@H]1C(=O)N(C)[C@H](C(C)C)C(=O)OC[C@H](NC(=O)c1cnc3ccccc3n1)C(=O)N[C@H](C)C(=O)N2C |  |  |  | 176 | 148 | 140 | 140 | 142 | 141
20 | CCOCC(O)COc1ccc(NC(=O)CC[S+](C)C)cc1 (stereo not drawn) | 451 | 424 | 433 | 442 | 452 | 408 | 460 | 411 | 413
21 | CCN(CC)CCCC(C)Nc1nc(C)cc(Nc2ccc3nc(C)cc(N)c3c2)n1 (stereo not drawn) |  |  |  | 461 | 464 | 469 | 464 | 470 | 468
22 | Cc1ccc(-c2cc(C(F)(F)F)nn2-c2ccc([S+](N)(=O)[O-])cc2)cc1 | 464 | 460 | 470 | 471 | 463 | 468 | 451 | 468 | 463
23 | O=C(O)Cc1cccc(OCCCN(Cc2cccc(C(F)(F)F)c2Cl)CC(c2ccccc2)c2ccccc2)c1 | 444 | 437 | 456 | 460 | 442 | 450 | 432 | 461 | 465
24 | CC[C@@H]1C(=O)N(C)c2cnc(Nc3ccc(C(=O)NC4CCN(C)CC4)cc3OC)nc2N1C1CCCC1 | 205 | 215 | 213 | 187 | 196 | 210 | 259 | 240 | 252

Row | Compound | AUC of viability dose-response curve (SEM cells; HPLM + 10% dialyzed FBS) | AUC of viability dose-response curve (SEM cells; RPMI 5 mM glucose + 10% FBS) | AUC of viability dose-response curve (SEM cells; [1]) | AUC of viability dose-response curve (P12-Ichikawa; HPLM + 10% dialyzed FBS) | AUC of viability dose-response curve (P12-Ichikawa; RPMI 5 mM glucose + 10% FBS) | AUC of viability dose-response curve (P12-Ichikawa; [1]) | AUC of viability dose-response curve (NOMO1; HPLM + 10% dialyzed FBS) | AUC of viability dose-response curve (NOMO1; RPMI 5 mM glucose + 10% FBS) | AUC of viability dose-response curve (NOMO1; [1])
25 | CCCCc1nc2cc(/C=C/C(=O)NO)ccc2n1CCN(CC)CC | 344 | 345 | 303 | 345 | 337 | 348 | 370 | 326 | 349
26 | CCCCCN(CCC12CC3CC(CC(C3)C1)C2)C(=O)NCCCc1ccncc1 | 472 | 463 | 466 | 458 | 469 | 465 | 454 | 465 | 467
27 | C[C@H](NCc1ccc(OCc2cccc(F)c2)cc1)C(N)=O | 323 | 325 | 290 | 450 | 443 | 443 | 445 | 461 | 454
28 | COc1cc2ncnc(Nc3cccc(Cl)c3)c2cc1OC | 287 | 242 | 274 | 309 | 315 | 305 | 286 | 370 | 343
29 | C=CC(=O)Nc1ccc2ncnc(Nc3ccc(OCc4cccc(F)c4)c(Cl)c3)c2c1 | 370 | 400 | 383 | 404 | 404 | 404 | 355 | 368 | 355
30 | Clc1ccccc1C(c1ccccc1)(c1ccccc1)n1ccnc1 | 425 | 416 | 412 | 448 | 426 | 448 | 451 | 443 | 468
31 | CC(C)CC(N(C)C)C1(c2ccc(Cl)cc2)CCC1 (stereo not drawn) | 424 | 408 | 406 | 393 | 392 | 382 | 441 | 457 | 463
32 | N#CC[C@H](C1CCCC1)n1cc(-c2ncnc3[nH]ccc23)cn1 | 405 | 396 | 402 | 408 | 401 | 372 | 384 | 374 | 407
33 | Oc1ccc2ccccc2c1SSc1c(O)ccc2ccccc12 | 453 | 450 | 417 | 474 | 464 | 463 | 470 | 469 | 469
34 | CC1=C(/C=C/C(C)=C/C=C/C(C)=C/C(=O)O)C(C)(C)CCC1 | 475 | 465 | 450 | 468 | 464 | 467 | 434 | 443 | 412
35 | CCOC(=O)[C@H]1O[C@@H]1C(=O)N[C@@H](CC(C)C)C(=O)NCCC(C)C | 462 | 475 | 462 | 462 | 461 | 469 | 448 | 445 | 456
36 | Cc1cccc(-c2[nH]c(C(C)(C)C)nc2-c2ccc3c(c2)OCO3)n1 | 411 | 409 | 411 | 413 | 406 | 423 | 418 | 399 | 398
37 | COc1ccc(-c2oc3cc(OC)ccc3c2C(=O)c2ccc(C#N)cc2)cc1 | 455 | 460 | 451 | 354 | 345 | 374 | 326 | 311 | 321
38 | Cc1cccc2c1CC[C@H](CN1CCC(c3c(Cl)cccc3Cl)CC1)C[C@@H]2O | 474 | 437 | 441 | 472 | 425 | 439 | 453 | 424 | 413
39 | CCOC(=O)N[C@@H]1CC[C@@H]2[C@@H](C1)C[C@H]1C(=O)O[C@H](C)[C@H]1[C@H]2/C=C/c1ccc(-c2cccc(F)c2)cn1 | 473 | 458 | 461 | 472 | 464 | 466 | 466 | 467 | 468
40 | COc1ccc(C2(C#N)CCC(C(=O)O)CC2)cc1OC1CCCC1 (stereo not drawn) | 439 | 443 | 443 | 475 | 466 | 464 | 465 | 434 | 471
41 | Oc1ccc(-c2ccc(-c3cc(Nc4cccc(CNC5CC5)c4)[nH]n3)cc2)c(O)c1 | 321 | 376 | 374 | 403 | 372 | 404 | 402 | 396 | 409
42 | Oc1ccc([C@@H]2Oc3ccc(O)cc3[C@@H]3CCC[C@@H]32)cc1 |  |  |  | 394 | 372 | 349 | 412 | 423 | 406
43 | Nc1nc(N)c(N=O)c(OCC2CCCCC2)n1 | 340 | 354 | 370 | 395 | 372 | 371 | 381 | 379 | 380
44 | COc1cc(OC)c(C(=O)CCCN2CCCC2)c(OC)c1 | 446 | 451 | 443 | 464 | 456 | 417 | 448 | 440 | 441
45 | COc1ccc2[nH]cc(CCNC(C)=O)c2c1 | 472 | 469 | 446 | 451 | 458 | 444 | 474 | 429 | 462
46 | CCC(C1CCC(C)C(O1)C(C)C(O)C(C)C(=O)C(CC)C2OC\3(O[C@]4(CC[C@@](C)(O4)C5CC[C@@](O)(CC)C(C)O5)C(O)\C=C3)C(C)CC2C)C([O-])=O (stereo partly drawn) |  |  |  | 426 | 403 | 382 |  |  | 
47 | COc1ccc([S+](=O)([O-])Nc2cccnc2Nc2ccc(O)cc2)cc1 |  |  |  | 372 | 377 | 388 | 387 | 379 | 410
